Laboratory results reported in BindingDB's records for doi:10.1016/s0960-894x(98)00065-1 (University of Arizona, 1999).

assay: Compound was tested for binding affinity towards Opioid receptor delta 1 in guinea pig brain homogenates using [3H][p-Cl-Phe]-DPDPE as radioligand

First: C[C@H](c1ccccc1)[C@H](NC(=O)CNC(=O)[C@@H](C)NC(=O)[C@@H](N)Cc1ccc(O)cc1)C(=O)NNC(=O)[C@@H](NC(=O)CNC(=O)[C@@H](C)NC(=O)[C@@H](N)Cc1ccc(O)cc1)[C@H](C)c1ccccc1 [2-Amino-N-((S)-1-{[((R)-1-{N'-[(R)-2-(2-{(S)-2-[2-amino-3-(4-hydroxy-phenyl)-propionylamino]-propionylamino}-acetylamino)-3-phenyl-butyryl]-hydrazinocarbonyl}-2-phenyl-propylcarbamoyl)-methyl]-carbamoyl}-ethyl)-3-(4-hydroxy-phenyl)-propionamide]
Second: C[C@@H](NC(=O)[C@@H](N)Cc1ccc(O)cc1)C(=O)NCC(=O)N[C@H](C(=O)NNC(=O)[C@@H](NC(=O)CNC(=O)[C@@H](C)NC(=O)[C@@H](N)Cc1ccc(O)cc1)[C@@H](C)c1ccccc1)[C@@H](C)c1ccccc1 [2-Amino-N-((S)-1-{[((S)-1-{N'-[(S)-2-(2-{(S)-2-[2-amino-3-(4-hydroxy-phenyl)-propionylamino]-propionylamino}-acetylamino)-3-phenyl-butyryl]-hydrazinocarbonyl}-2-phenyl-propylcarbamoyl)-methyl]-carbamoyl}-ethyl)-3-(4-hydroxy-phenyl)-propionamide]
The Ki of the first is 10-fold higher: 110 nM for the first, 11 nM for the second. The second binds more tightly here.

`C[C@@H](NC(=O)[C@@H](N)Cc1ccc(O)cc1)C(=O)NCC(=O)N[C@@H](Cc1c(F)c(F)c(F)c(F)c1F)C(=O)NNC(=O)[C@H](Cc1c(F)c(F)c(F)c(F)c1F)NC(=O)CNC(=O)[C@@H](C)NC(=O)[C@@H](N)Cc1ccc(O)cc1` [Biphalin Analogue] and `C[C@@H](NC(=O)[C@@H](N)Cc1ccc(O)cc1)C(=O)NCC(=O)N[C@@H](Cc1ccc2ccccc2c1)C(=O)NNC(=O)[C@H](Cc1ccc2ccccc2c1)NC(=O)CNC(=O)[C@@H](C)NC(=O)[C@@H](N)Cc1ccc(O)cc1` [Biphalin Analogue] are within 1.5-fold of each other in Ki: 7.8 nM for the first, 7.4 nM for the second.

`C[C@@H](NC(=O)[C@@H](N)Cc1ccc(O)cc1)C(=O)NCC(=O)N[C@@H](Cc1cccc2ccccc12)C(=O)NNC(=O)[C@H](Cc1cccc2ccccc12)NC(=O)CNC(=O)[C@@H](C)NC(=O)[C@@H](N)Cc1ccc(O)cc1` [Biphalin Analogue] showed a Ki of 6.4 nM.
